Consider three compounds from US4275057A (The United States of America as represented by the …, priority 1980, dated 1981).

Structures are written as SMILES.

In assay [1] the target is T1, Mouse kidney cytidine deaminase (Mus musculus, UniProt P56389).
T1 construct: isolated and partially purified from mouse kidney acetone powder; tissue Sigma Chemical Co; host or cells: mouse kidney (acetone powder, buffer extract, ammonium sulfate fractionation)
The assay can be described thus: Cytidine deaminase inhibition, mouse kidney enzyme. The assay is classed as biochemical.

The target in assay [2] is T2, Cytidine deaminase from human liver (Homo sapiens, UniProt P32320).
T2 construct: Cytidine deaminase from human liver was isolated; from tissue; host or cells: human liver
The assay can be described thus: Cytidine deaminase inhibition, human liver enzyme. The assay is classed as biochemical.

The subject of assay [3] is adenosine deaminase. Particulars: qualitative statement; cited from earlier work.

T1 sequence (P56389 whole entry): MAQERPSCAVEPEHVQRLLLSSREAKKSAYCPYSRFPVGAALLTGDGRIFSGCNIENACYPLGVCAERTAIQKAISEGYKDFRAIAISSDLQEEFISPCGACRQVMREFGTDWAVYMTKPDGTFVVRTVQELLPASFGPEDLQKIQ
T2 sequence (P32320 whole entry): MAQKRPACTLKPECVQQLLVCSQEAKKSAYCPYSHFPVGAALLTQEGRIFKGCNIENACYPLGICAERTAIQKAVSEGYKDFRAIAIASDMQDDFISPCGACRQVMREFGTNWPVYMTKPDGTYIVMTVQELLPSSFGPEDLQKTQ

With `O=C1CCNC(=O)N([C@@H]2O[C@H](CO)[C@@H](O)[C@H]2O)C1` [Compound 8b, 3-(β-D-Ribofuranosyl)-5-keto-perhydro-1,3-diazepin-2-one], the inhibition constant Ki in assay [1] and in assay [2] was 10 µM in each case. For the compound `OC[C@H]1O[C@@H](n2cnc3c2N=CNC[C@H]3O)C[C@@H]1O` [2'-deoxycoformycin], the “inhibition of adenosine deaminase (in words)” value in assay [3] is recorded as “very potent adenosine deaminase inhibitor”. The compound `O=C1NCCCCN1C1C[C@H](O)[C@@H](CO)O1` (stereo partly drawn) [Compound 3d, 1-(2-deoxy-D-erythro-pentofuranosyl)-perhydro-1,3-diazepin-2-one] gave a Ki in assay [1] of 0.2 µM.

A word on the Ki: it is a measure of affinity in units of concentration, obtained from inhibition or displacement. A higher Ki goes with a looser hold on the target.
